Source: patent publication US10323041B2, “Bicyclic derivatives, a process for their preparation and pharmaceutical compositions containing them” (LES LABORATOIRES SERVIER, priority 2015, dated 2019)

Molecular target: Mcl-1 protein (Homo sapiens, UniProt Q07820)
Assay: Inhibition of Mcl-1 by the fluorescence polarisation technique
Assay type: binding
Conditions: Method 1 (not underlined) or Method 2 (underlined); underlining not visible; first value where cell prints two; read-out: IC50 (M) Mcl-1 FP
Procedure: The relative binding potency of each compound was determined via fluorescence Polarisation (FP). The method utilised a Fluorescein labelled ligand Fluorescein-βAla-Ahx-[A-REIGAQLRRMADDLNAQY (SEQ ID NO: 1)]-OH; mw 2,765) which binds to the Mcl-1 protein (such that corresponds to the UniProtKB® primary accession number: Q07820) leading to an increased anisotropy measured in milli-polarisation (mP) units using a reader. The addition of a compound which binds competitively to the same site as the ligand will result in a greater proportion of unbound ligand in the system indicated by a decrease in mP units.
Method 1: An 11 point serial dilution of each compound was prepared in DMSO and 2 μl transferred into flat bottomed, low binding, 384-well plate (final DMSO concentration 5%). 38 μl of buffer (10 mM 4-(2-hydroxyethyl)-1-piperazineethanesulfonic acid [HEPES], 150 mM NaCl, 0.05% Tween 20, pH 7.4), containing the Fluorescein labelled ligand (final concentration 1 nM) and Mcl-1 protein (final concentration 5 nM) was then added.
(§1) Assay plates were incubated ˜2 hours at room temperature before FP was measured on a […] Synergy2 reader (Ex. 528 nm, Em. 640 nm, Cut off 510 nm) and mP units calculated. The binding of increasing doses of test compound was expressed as a percentage reduction in mP compared to a window established between ‘5% DMSO only’ and ‘100% inhibition’ controls. 11-point dose response curves were plotted with XL-Fit software using a 4-Parameter Logistic Model (Sigmoidal Dose-Response Model) and the inhibitory concentrations that gave a 50% reduction in mP (IC50) were determined. Results obtained using Method 1 are presented in Table 1 below; IC50 of Mcl-1 inhibition obtained using Method 1 are not underlined.
Method 2: An 11 point serial dilution of each compound was prepared in DMSO and 2 μl transferred into flat bottomed, low binding, 384-well plate (final DMSO concentration 5%). 38 μl of buffer (20 mM Na2HPO4, 1 mM EDTA, 50 mM NaCl, pH 7.4), containing the Fluorescein labelled ligand (final concentration 10 nM) and Mcl-1 protein (final concentration 10 nM) was then added.
as §1, with “inhibition’ controls (50 μM unlabelled ligand).” for “inhibition’ controls.”, “Method 2” for “Method 1”, “are” for “are not”

Mcl-1 protein, sequence (Q07820 whole entry): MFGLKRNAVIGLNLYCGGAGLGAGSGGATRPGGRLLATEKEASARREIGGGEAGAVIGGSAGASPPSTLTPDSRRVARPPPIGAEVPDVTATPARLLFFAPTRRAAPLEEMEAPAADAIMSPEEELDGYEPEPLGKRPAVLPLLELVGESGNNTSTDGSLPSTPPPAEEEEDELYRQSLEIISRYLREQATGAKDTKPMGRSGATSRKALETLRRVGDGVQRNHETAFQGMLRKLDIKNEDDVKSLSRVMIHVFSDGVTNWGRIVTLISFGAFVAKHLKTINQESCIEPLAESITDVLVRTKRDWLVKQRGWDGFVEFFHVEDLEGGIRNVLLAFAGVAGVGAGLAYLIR

| Structure (SMILES) | IC50 |
| --- | --- |
| CCc1c(-c2cccc3ccccc23)c2c(N[C@H](Cc3ccccc3)C(=O)O)ncnc2n1Cc1ccccc1 (single isomer, unassigned) [Example 12, N-[7-benzyl-6-ethyl-5-(naphthalen-1-yl)-7H-pyrrolo[2,3-d]pyrimidin-4-yl]-D-phenylalanine] | 5.6e-07 M |
| CCc1c(-c2cccc3ccccc23)c2c(N[C@H](Cc3ccccc3)C(=O)O)ncnc2n1Cc1ccccc1 (single isomer, unassigned) [Example 13, N-[7-benzyl-6-ethyl-5-(naphthalen-1-yl)-7H-pyrrolo[2,3-d]pyrimidin-4-yl]-D-phenylalanine] | 6.6e-07 M |
| CCc1c(-c2cccc3ccccc23)c2c(N[C@H](Cc3ccccc3)C(=O)O)ncnc2n1CCOc1cccc2ccccc12 (single isomer, unassigned) [Example 14, N-{6-ethyl-5-(naphthalen-1-yl)-7-[2-(naphthalen-1-yloxy)ethyl]-7H-pyrrolo[2,3-d]pyrimidin-4-yl}-D-phenylalanine] | 1.2e-05 M |
| CCc1c(-c2cccc3ccccc23)c2c(N[C@H](Cc3ccccc3)C(=O)O)ncnc2n1CCOc1cccc2ccccc12 (single isomer, unassigned) [Example 15, N-{6-ethyl-5-(naphthalen-1-yl)-7-[2-(naphthalen-1-yloxy)ethyl]-7H-pyrrolo[2,3-d]pyrimidin-4-yl}-D-phenylalanine] | 7.3e-06 M |
| CCc1c(-c2cccc3ccccc23)c2c(N[C@H](Cc3ccccc3)C(=O)O)ncnc2n1CCc1ccccc1 (single isomer, unassigned) [Example 16, N-[6-ethyl-5-(naphthalen-1-yl)-7-(2-phenylethyl)-7H-pyrrolo[2,3-d]pyrimidin-4-yl]-D-phenylalanine] | 1.8e-06 M |
| CCc1c(-c2cccc3ccccc23)c2c(N[C@H](Cc3ccccc3)C(=O)O)ncnc2n1CCc1ccccc1 (single isomer, unassigned) [Example 17, N-[6-ethyl-5-(naphthalen-1-yl)-7-(2-phenylethyl)-7H-pyrrolo[2,3-d]pyrimidin-4-yl]-D-phenylalanine] | 3.8e-06 M |
| CCc1c(-c2cccc3ccccc23)c2c(N[C@H](Cc3ccccc3)C(=O)O)ncnc2n1CCCc1ccccc1 (single isomer, unassigned) [Example 18, N-[6-ethyl-5-(naphthalen-1-yl)-7-(3-phenylpropyl)-7H-pyrrolo[2,3-d]pyrimidin-4-yl]-D-phenylalanine] | 3.1e-06 M |
| CCc1c(-c2cccc3ccccc23)c2c(N[C@H](Cc3ccccc3)C(=O)O)ncnc2n1CCCc1ccccc1 (single isomer, unassigned) [Example 19, N-[6-ethyl-5-(naphthalen-1-yl)-7-(3-phenylpropyl)-7H-pyrrolo[2,3-d]pyrimidin-4-yl]-D-phenylalanine] | 3.3e-06 M |
| C=CCn1c(CC)c(-c2cccc(Cl)c2C)c2c(NC(Cc3ccccc3)C(=O)O)ncnc21 (single isomer, unassigned) [Example 24, N-[(5Ra)-5-(3-chloro-2-methylphenyl)-6-ethyl-7-(prop-2-en-1-yl)-7H-pyrrolo[2,3-d]pyrimidin-4-yl]-D-phenylalanine] | 1.8e-05 M |
| C=CCn1c(CC)c(-c2cccc(Cl)c2C)c2c(NC(Cc3ccccc3)C(=O)O)ncnc21 (single isomer, unassigned) [Example 25, N-[(5Sa)-5-(3-chloro-2-methylphenyl)-6-ethyl-7-(prop-2-en-1-yl)-7H-pyrrolo[2,3-d]pyrimidin-4-yl]-D-phenylalanine] | 9.1e-06 M |
| CC#CCn1c(CC)c(-c2cccc(Cl)c2C)c2c(NC(Cc3ccccc3)C(=O)O)ncnc21 (single isomer, unassigned) [Example 26, N-[7-(but-2-yn-1-yl)-(5Ra)-5-(3-chloro-2-methylphenyl)-6-ethyl-7H-pyrrolo[2,3-d]pyrimidin-4-yl]-D-phenylalanine] | 5.9e-06 M |
| CC#CCn1c(CC)c(-c2cccc(Cl)c2C)c2c(NC(Cc3ccccc3)C(=O)O)ncnc21 (single isomer, unassigned) [Example 27, N-[7-(but-2-yn-1-yl)-(5Sa)-5-(3-chloro-2-methylphenyl)-6-ethyl-7H-pyrrolo[2,3-d]pyrimidin-4-yl]-D-phenylalanine] | 3.3e-07 M |
| CCc1c(-c2cccc(Cl)c2C)c2c(NC(Cc3ccccc3)C(=O)O)ncnc2n1CCC1CCCC1 (single isomer, unassigned) [Example 30, N-[(5Ra)-5-(3-chloro-2-methylphenyl)-7-(2-cyclopentylethyl)-6-ethyl-7H-pyrrolo[2,3-d]pyrimidin-4-yl]-D-phenylalanine] | 6.4e-06 M |
| CCc1c(-c2cccc(Cl)c2C)c2c(NC(Cc3ccccc3)C(=O)O)ncnc2n1CCC1CCCC1 (single isomer, unassigned) [Example 31, N-[(5Sa)-5-(3-chloro-2-methylphenyl)-7-(2-cyclopentylethyl)-6-ethyl-7H-pyrrolo[2,3-d]pyrimidin-4-yl]-D-phenylalanine] | 7.9e-07 M |

The next lines start with the values.

| IC50 | Structure (SMILES) |
| --- | --- |
| 3.5e-06 M | CCc1c(-c2cccc(Cl)c2C)c2c(NC(Cc3ccccc3)C(=O)O)ncnc2n1Cc1cccc2ccccc12 (single isomer, unassigned) [Example 32, N-[(5Ra)-5-(3-chloro-2-methylphenyl)-6-ethyl-7-(naphthalen-1-ylmethyl)-7H-pyrrolo[2,3-d]pyrimidin-4-yl]-D-phenylalanine] |
| 2.6e-07 M | CCc1c(-c2cccc(Cl)c2C)c2c(NC(Cc3ccccc3)C(=O)O)ncnc2n1Cc1cccc2ccccc12 (single isomer, unassigned) [Example 33, N-[(5Sa)-5-(3-chloro-2-methylphenyl)-6-ethyl-7-(naphthalen-1-ylmethyl)-7H-pyrrolo[2,3-d]pyrimidin-4-yl]-D-phenylalanine] |
| 6.4e-06 M | CCc1c(-c2cccc(Cl)c2C)c2c(NC(Cc3ccccc3)C(=O)O)ncnc2n1Cc1ccc(OC)cc1 (single isomer, unassigned) [Example 34, N-[(5Ra)-5-(3-chloro-2-methylphenyl)-6-ethyl-7-(4-methoxybenzyl)-7H-pyrrolo[2,3-d]pyrimidin-4-yl]-D-phenylalanine] |
| 2.9e-07 M | CCc1c(-c2cccc(Cl)c2C)c2c(NC(Cc3ccccc3)C(=O)O)ncnc2n1Cc1ccc(OC)cc1 (single isomer, unassigned) [Example 35, N-[(5Sa)-5-(3-chloro-2-methylphenyl)-6-ethyl-7-(4-methoxybenzyl)-7H-pyrrolo[2,3-d]pyrimidin-4-yl]-D-phenylalanine] |
| 6.5e-06 M | CCc1c(-c2cccc(Cl)c2C)c2c(NC(Cc3ccccc3)C(=O)O)ncnc2n1Cc1ccccc1 (single isomer, unassigned) [Example 36, N-[7-benzyl-(5Ra)-5-(3-chloro-2-methylphenyl)-6-ethyl-7H-pyrrolo[2,3-d]pyrimidin-4-yl]-D-phenylalanine] |
| 5.3e-07 M | CCc1c(-c2cccc(Cl)c2C)c2c(NC(Cc3ccccc3)C(=O)O)ncnc2n1Cc1ccccc1 (single isomer, unassigned) [Example 37, N-[7-benzyl-(5Sa)-5-(3-chloro-2-methylphenyl)-6-ethyl-7H-pyrrolo[2,3-d]pyrimidin-4-yl]-D-phenylalanine] |
| 1.3e-05 M | C=CCCn1c(Br)c(-c2cccc(Cl)c2C)c2c(NC(Cc3ccccc3)C(=O)O)ncnc21 (single isomer, unassigned) [Example 41, N-[6-bromo-7-(but-3-en-1-yl)-(5Ra)-5-(3-chloro-2-methylphenyl)-7H-pyrrolo[2,3-d]pyrimidin-4-yl]-D-phenylalanine] |
| 4.5e-07 M | C=CCCn1c(Br)c(-c2cccc(Cl)c2C)c2c(NC(Cc3ccccc3)C(=O)O)ncnc21 (single isomer, unassigned) [Example 42, N-[6-bromo-7-(but-3-en-1-yl)-(5Sa)-5-(3-chloro-2-methylphenyl)-7H-pyrrolo[2,3-d]pyrimidin-4-yl]-D-phenylalanine] |
| 1.1e-05 M | Cc1c(Cl)cccc1-c1c2n(c3ncnc(NC(Cc4ccccc4)C(=O)O)c13)CCCC2 (single isomer, unassigned) [Example 47, N-[(5Ra)-5-(3-chloro-2-methylphenyl)-6,7,8,9-tetrahydropyrimido[5,4-b]indolizin-4-yl]-D-phenylalanine] |
| 5.9e-06 M | Cc1c(Cl)cccc1-c1c2n(c3ncnc(NC(Cc4ccccc4)C(=O)O)c13)CCCC2 (single isomer, unassigned) [Example 48, N-[(5Sa)-5-(3-chloro-2-methylphenyl)-6,7,8,9-tetrahydropyrimido[5,4-b]indolizin-4-yl]-D-phenylalanine] |
